Results from patent US7202280B2, “Methods for the treatment and prevention of pancreatitis and for induction of liver regeneration” (priority 2002, dated 2007).

Test system: syngenic and metallothionein-SSAT mice
Assay: Hepatic, pancreatic and renal polyamine concentration in syngenic and metallothionein-SSAT mice after analogue
Format: in vivo, mouse
Conditions: Sg mice, 24 h
Method: α-methylspermidine, Bis-α-methylspermine and α-methylspermine were administered in saline. […] The data are expressed as means ±S.D. For statistical analysis, the two-tailed Student's t test was used.

CC(N)CCNCCCCN (stereo not drawn) [α-methylspermidine, 1-methylspermidine]
hepatic N^1-Acetyl-spermidine (50 mg/kg): 21.45 pmoles/mg tissue wet weight
hepatic Spermidine (50 mg/kg): 1018.24 pmoles/mg tissue wet weight
hepatic Spermine (50 mg/kg): 864.34 ± 90.79 ^++ pmoles/mg tissue wet weight
hepatic α-Methyl-spermidine (50 mg/kg): 394.01 pmoles/mg tissue wet weight
pancreatic Putrescine (50 mg/kg): 2.82 pmoles/mg tissue wet weight
pancreatic Spermidine (50 mg/kg): 6597.75 ± 1034.98 ^+ pmoles/mg tissue wet weight
pancreatic Spermine (50 mg/kg): 911.15 pmoles/mg tissue wet weight
renal N^1-Acetylspermidine (50 mg/kg): 36.67 pmoles/mg tissue wet weight
renal Putrescine (50 mg/kg): 45.91 pmoles/mg tissue wet weight
renal Spermidine (50 mg/kg): 315.36 ± 46.18 ^+ pmoles/mg tissue wet weight
renal Spermine (50 mg/kg): 856.32 ± 68.27 pmoles/mg tissue wet weight
renal α-Methylspermidine (50 mg/kg): 122.64 pmoles/mg tissue wet weight
hepatic N^1-Acetyl-spermidine (100 mg/kg): 12.90 pmoles/mg tissue wet weight
hepatic Putrescine (100 mg/kg): 15.36 pmoles/mg tissue wet weight
hepatic Spermidine (100 mg/kg): 729.82 pmoles/mg tissue wet weight
hepatic Spermine (100 mg/kg): 892.64 ± 79.24 ^++ pmoles/mg tissue wet weight
hepatic α-Methyl-spermidine (100 mg/kg): 461.44 pmoles/mg tissue wet weight
pancreatic N^1-Acetyl-spermidine (100 mg/kg): 66.33 pmoles/mg tissue wet weight
pancreatic Spermidine (100 mg/kg): 6089.81 ± 1039.94 ^++ pmoles/mg tissue wet weight
pancreatic Spermine (100 mg/kg): 815.33 pmoles/mg tissue wet weight
renal N^1-Acetylspermidine (100 mg/kg): 38.89 pmoles/mg tissue wet weight
renal Putrescine (100 mg/kg): 68.97 pmoles/mg tissue wet weight
renal Spermidine (100 mg/kg): 231.78 ± 25.15 pmoles/mg tissue wet weight
renal Spermine (100 mg/kg): 686.21 ± 75.94 ^+ pmoles/mg tissue wet weight
renal α-Methylspermidine (100 mg/kg): 146.37 pmoles/mg tissue wet weight
hepatic N^1-Acetyl-spermidine (150 mg/kg): 23.35 pmoles/mg tissue wet weight
hepatic Spermidine (150 mg/kg): 723.14 pmoles/mg tissue wet weight
hepatic Spermine (150 mg/kg): 739.53 ± 170.40 ^+ pmoles/mg tissue wet weight
hepatic α-Methyl-spermidine (150 mg/kg): 504.41 pmoles/mg tissue wet weight
pancreatic Putrescine (150 mg/kg): 1.66 pmoles/mg tissue wet weight
pancreatic Spermidine (150 mg/kg): 6345.88 ± 1026.88 ^++ pmoles/mg tissue wet weight
pancreatic Spermine (150 mg/kg): 833.73 pmoles/mg tissue wet weight
renal N^1-Acetylspermidine (150 mg/kg): 24.61 pmoles/mg tissue wet weight
renal Putrescine (150 mg/kg): 65.28 pmoles/mg tissue wet weight
renal Spermidine (150 mg/kg): 240.59 ± 28.71 pmoles/mg tissue wet weight
renal Spermine (150 mg/kg): 635.17 ± 42.35 pmoles/mg tissue wet weight
renal α-Methylspermidine (150 mg/kg): 175.49 pmoles/mg tissue wet weight
hepatic N^1-Acetyl-spermidine (250 mg/kg): 18.97 pmoles/mg tissue wet weight
hepatic Putrescine (250 mg/kg): 21.87 pmoles/mg tissue wet weight
hepatic Spermidine (250 mg/kg): 593.49 pmoles/mg tissue wet weight
hepatic Spermine (250 mg/kg): 854.77 ± 108.73 ^++ pmoles/mg tissue wet weight
hepatic α-Methyl-spermidine (250 mg/kg): 763.57 pmoles/mg tissue wet weight
pancreatic Putrescine (250 mg/kg): 158.82 pmoles/mg tissue wet weight
pancreatic Spermidine (250 mg/kg): 4773.64 ± 838.69 ^++ pmoles/mg tissue wet weight
pancreatic Spermine (250 mg/kg): 762.743 pmoles/mg tissue wet weight
pancreatic α-Methyl-spermidine (250 mg/kg): 1363.02 pmoles/mg tissue wet weight
renal N^1-Acetylspermidine (250 mg/kg): 31.10 pmoles/mg tissue wet weight
renal Putrescine (250 mg/kg): 41.84 pmoles/mg tissue wet weight
renal Spermidine (250 mg/kg): 225.57 ± 29.21 ^+ pmoles/mg tissue wet weight
renal Spermine (250 mg/kg): 518.89 ± 36.68 pmoles/mg tissue wet weight
renal α-Methylspermidine (250 mg/kg): 288.30 pmoles/mg tissue wet weight
hepatic N^1-Acetyl-spermidine (375 mg/kg): 31.64 pmoles/mg tissue wet weight
hepatic Putrescine (375 mg/kg): 29.37 pmoles/mg tissue wet weight
hepatic Spermidine (375 mg/kg): 370.29 pmoles/mg tissue wet weight
hepatic Spermine (375 mg/kg): 644.88 ± 183.36 ^+ pmoles/mg tissue wet weight
hepatic α-Methyl-spermidine (375 mg/kg): 1095.59 pmoles/mg tissue wet weight
pancreatic N^1-Acetyl-spermidine (375 mg/kg): 14.02 pmoles/mg tissue wet weight
pancreatic Putrescine (375 mg/kg): 726.66 pmoles/mg tissue wet weight
pancreatic Spermidine (375 mg/kg): 4073.3 ± 670.46^++ pmoles/mg tissue wet weight
pancreatic Spermine (375 mg/kg): 740.93 pmoles/mg tissue wet weight
pancreatic α-Methyl-spermidine (375 mg/kg): 1319.14 pmoles/mg tissue wet weight
renal N^1-Acetylspermidine (375 mg/kg): 27.40 pmoles/mg tissue wet weight
renal Putrescine (375 mg/kg): 58.59 pmoles/mg tissue wet weight
renal Spermidine (375 mg/kg): 189.46 ± 0.98 pmoles/mg tissue wet weight
renal Spermine (375 mg/kg): 454.49 ± 64.44 ^+ pmoles/mg tissue wet weight
renal α-Methylspermidine (375 mg/kg): 477.31 pmoles/mg tissue wet weight
hepatic N^1-Acetyl-spermidine (500 mg/kg): 133.00 pmoles/mg tissue wet weight
hepatic Putrescine (500 mg/kg): 119.33 pmoles/mg tissue wet weight
hepatic Spermidine (500 mg/kg): 273.13 pmoles/mg tissue wet weight
hepatic Spermine (500 mg/kg): 666.13 ± 188.21 pmoles/mg tissue wet weight
hepatic α-Methyl-spermidine (500 mg/kg): 1801.46 pmoles/mg tissue wet weight
pancreatic N^1-Acetyl-spermidine (500 mg/kg): 10.62 pmoles/mg tissue wet weight
pancreatic Putrescine (500 mg/kg): 812.54 pmoles/mg tissue wet weight
pancreatic Spermidine (500 mg/kg): 3669.36 ± 1235.66 pmoles/mg tissue wet weight
pancreatic Spermine (500 mg/kg): 652.17 pmoles/mg tissue wet weight
pancreatic α-Methyl-spermidine (500 mg/kg): 1273.3 pmoles/mg tissue wet weight
renal N^1-Acetylspermidine (500 mg/kg): 46.34 pmoles/mg tissue wet weight
renal Putrescine (500 mg/kg): 789.63 pmoles/mg tissue wet weight
